Results from US10407422B2, “Triazolopyridine inhibitors of myeloperoxidase” (priority 2015, dated 2019).

Experiments:
myeloperoxidase (MPO) [1] = biological target: T1, myeloperoxidase (MPO) (Homo sapiens (Human), UniProt P05164); assay: MPO chlorination assay (APF assay); assay type: biochemical; details: potency range class
Summary of the method: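 Human MPO (200 pM) preincubated 10 min at room temperature with inhibitor and 120 mM NaCl in 100 mM KPi pH 7.4. Reaction started with APF plus 10 μM H2O2, and hypochlorite-generated fluorescein read kinetically (ex 485/em 535 nm) for 3 min. IC50 from linear-phase slopes fitted to a four-parameter equation.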

myeloperoxidase (MPO) [2] = biological target: T1, myeloperoxidase (MPO); assay: MPO peroxidation assay (Amplex Red assay); assay type: biochemical; details: potency range class
Summary of the method: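 Human MPO at 200 pM with 40 nM H2O2 preincubated 10 min at room temperature with inhibitor in 100 mM KPi pH 7.4. Reaction started with Amplex Red mixture (200 μM Amplex Red, 10 mM H2O2); resorufin fluorescence (Ex 535, Em 590 nm) read kinetically for 15 min. IC50 fitted from slopes over 180-540 s.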

T1 sequence (P05164 49-745): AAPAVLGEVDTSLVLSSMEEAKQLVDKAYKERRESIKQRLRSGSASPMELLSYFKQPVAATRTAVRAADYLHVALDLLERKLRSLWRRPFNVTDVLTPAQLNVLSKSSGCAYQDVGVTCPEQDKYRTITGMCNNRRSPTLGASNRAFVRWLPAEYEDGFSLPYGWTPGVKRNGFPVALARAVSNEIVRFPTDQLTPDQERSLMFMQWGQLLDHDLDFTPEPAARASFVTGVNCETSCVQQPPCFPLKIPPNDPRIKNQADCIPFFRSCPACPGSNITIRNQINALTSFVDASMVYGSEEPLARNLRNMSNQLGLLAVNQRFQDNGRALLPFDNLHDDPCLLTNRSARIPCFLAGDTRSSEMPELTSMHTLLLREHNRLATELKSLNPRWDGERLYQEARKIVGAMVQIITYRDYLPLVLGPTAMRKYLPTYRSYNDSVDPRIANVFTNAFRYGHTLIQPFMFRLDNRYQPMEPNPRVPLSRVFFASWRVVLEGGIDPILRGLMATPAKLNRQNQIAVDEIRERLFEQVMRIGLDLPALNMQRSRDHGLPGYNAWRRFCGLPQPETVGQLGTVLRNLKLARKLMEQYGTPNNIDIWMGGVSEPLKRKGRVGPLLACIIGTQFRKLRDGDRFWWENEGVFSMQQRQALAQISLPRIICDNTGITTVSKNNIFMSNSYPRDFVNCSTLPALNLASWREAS

IC50 (myeloperoxidase (MPO) [1]) [nM]	IC50 (myeloperoxidase (MPO) [2]) [nM]	Structure (SMILES)
1 to 100	1 to 100	CC1C[C@@H](c2cccc(Cn3cc(Cc4cc(N)nc5[nH]nnc45)cn3)c2)CN1 (stereo partly drawn) [Example 202, 7-{[1-({3-[(3S)-5-Methylpyrrolidin-3-yl]phenyl}methyl)-1H-pyrazol-4-yl]methyl}-3H-[1,2,3]triazolo[4,5-b]pyridin-5-amine]
1 to 100	1 to 100	Nc1cc(Cc2cnn(Cc3cccc([C@H]4CNC(Cc5ccccc5)C4)c3)c2)c2nn[nH]c2n1 (stereo partly drawn) [Example 203, 7-{[1-({3-[(3S)-5-benzylpyrrolidin-3-yl]phenyl}methyl)-1H-pyrazol-4-yl]methyl}-3H-[1,2,3]triazolo[4,5-b]pyridin-5-amine]
1 to 100	1 to 100	CCCC1C[C@@H](c2cccc(Cn3cc(Cc4cc(N)nc5[nH]nnc45)cn3)c2)CN1 (stereo partly drawn) [Example 204, 7-{[1-({3-[(3S)-5-propylpyrrolidin-3-yl]phenyl}methyl)-1H-pyrazol-4-yl]methyl}-3H-[1,2,3]triazolo[4,5-b]pyridin-5-amine]
1 to 100	1 to 100	CC(C)C1C[C@@H](c2cccc(Cn3cc(Cc4cc(N)nc5[nH]nnc45)cn3)c2)CN1 (stereo partly drawn) [Example 205, 7-{[1-({3-[(3S)-5-(propan-2-yl)pyrrolidin-3-yl]phenyl}methyl)-1H-pyrazol-4-yl]methyl}-3H-[1,2,3]triazolo[4,5-b]pyridin-5-amine]
101 to 999	1 to 100	Nc1cc(Cc2cnn(Cc3cccc(C4CCNCC4)c3)c2)c2nn[nH]c2n1 [Example 206, 7-[(1-{[3-(Piperidin-4-yl)phenyl]methyl}-1H-pyrazol-4-yl)methyl]-3H-[1,2,3]triazolo[4,5-b]pyridin-5-amine]
1 to 100	1 to 100	Nc1cc(Cc2cnn(Cc3cccc(C4CCCN4)c3)c2)c2nn[nH]c2n1 (centres unmarked) [Example 208, 7-[(1-{[3-(Pyrrolidin-2-yl)phenyl]methyl}-1H-pyrazol-4-yl)methyl]-3H-[1,2,3]triazolo[4,5-b]pyridin-5-amine]
101 to 999	101 to 999	CN1CCC(c2cccc(Cn3cc(Cc4cc(N)nc5[nH]nnc45)cn3)c2)CC1 [Example 209, 7-[(1-{[3-(1-Methylpiperidin-4-yl)phenyl]methyl}-1H-pyrazol-4-yl)methyl]-3H-[1,2,3]triazolo[4,5-b]pyridin-5-amine]
1 to 100	1 to 100	Nc1cc(Cc2cnn(Cc3cccc(C4CNC4)c3)c2)c2nn[nH]c2n1 [Example 210, 7-[(1-{[3-(Azetidin-3-yl)phenyl]methyl}-1H-pyrazol-4-yl)methyl]-3H-[1,2,3]triazolo[4,5-b]pyridin-5-amine]
1 to 100	1 to 100	CC1CC(c2cccc(Cn3cc(Cc4cc(N)nc5[nH]nnc45)cn3)c2)CCN1 (centres unmarked) [Example 211, 7-[(1-{[3-(2-Methylpiperidin-4-yl)phenyl]methyl}-1H-pyrazol-4-yl)methyl]-3H-[1,2,3]triazolo[4,5-b]pyridin-5-amine]
1 to 100	1 to 100	CC1CNCCC1c1cccc(Cn2cc(Cc3cc(N)nc4[nH]nnc34)cn2)c1 (centres unmarked) [Example 212, 7-[(1-{[3-(3-Methylpiperidin-4-yl)phenyl]methyl}-1H-pyrazol-4-yl)methyl]-3H-[1,2,3]triazolo[4,5-b]pyridin-5-amine]
1 to 100	1 to 100	Nc1cc(Cc2cnn(Cc3cccc(C4CCNCC4F)c3)c2)c2nn[nH]c2n1 (centres unmarked) [Example 216, 7-[(1-{[3-(3-Fluoropiperidin-4-yl)phenyl]methyl}-1H-pyrazol-4-yl)methyl]-3H-[1,2,3]triazolo[4,5-b]pyridin-5-amine]

Further lines, the compound ahead of its results:

Structure (SMILES)	IC50 (myeloperoxidase (MPO) [1]) [nM]	IC50 (myeloperoxidase (MPO) [2]) [nM]
Nc1cc(Cc2cnn(Cc3cc([C@@H]4CC(=O)NC4CO)cc(C(F)(F)F)c3)c2)c2nn[nH]c2n1 (stereo partly drawn) [Example 201, (4S)-4-(3-{[4-({5-Amino-3H-[1,2,3]triazolo[4,5-b]pyridin-7-yl}methyl)-1H-pyrazol-1-yl]methyl}-5-(trifluoromethyl)phenyl)-5-(hydroxymethyl)pyrrolidin-2-one]	1 to 100	1 to 100
Nc1cc(Cc2cnn(Cc3cccc(CC4CCNCC4)c3)c2)c2nn[nH]c2n1 [Example 207, 7-[(1-{[3-(Piperidin-4-ylmethyl)phenyl]methyl}-1H-pyrazol-4-yl)methyl]-3H-[1,2,3]triazolo[4,5-b]pyridin-5-amine]	101 to 999	1 to 100
Nc1cc(Cc2cnn(Cc3cccc(C4(O)CCNCC4F)c3)c2)c2nn[nH]c2n1 (centres unmarked) [Example 213, 4-(3-{[4-({5-Amino-3H-[1,2,3]triazolo[4,5-b]pyridin-7-yl}methyl)-1H-pyrazol-1-yl]methyl}phenyl)-3-fluoropiperidin-4-ol]	101 to 999	1 to 100
Nc1cc(Cc2cnn(Cc3cccc(C4CCNCC4(F)F)c3)c2)c2nn[nH]c2n1 (centres unmarked) [Example 214, 7-[(1-{[3-(3,3-Difluoropiperidin-4-yl)phenyl]methyl}-1H-pyrazol-4-yl)methyl]-3H-[1,2,3]triazolo[4,5-b]pyridin-5-amine]	101 to 999	1 to 100
Nc1cc(Cc2cnn(Cc3ccccc3C3CCNCC3)c2)c2nn[nH]c2n1 [Example 215, 7-[(1-{[2-(Piperidin-4-yl)phenyl]methyl}-1H-pyrazol-4-yl)methyl]-3H-[1,2,3]triazolo[4,5-b]pyridin-5-amine]	101 to 999	1 to 100
Nc1cc(Cc2cnn(Cc3cccc(N4CCNCC4)c3)c2)c2nn[nH]c2n1 [Example 217, 7-[(1-{[3-(Piperazin-1-yl)phenyl]methyl}-1H-pyrazol-4-yl)methyl]-3H-[1,2,3]triazolo[4,5-b]pyridin-5-amine]	101 to 999	1 to 100
Nc1cc(Cc2cnn(Cc3cccc(N4CCNC(c5cccc(Cl)c5)C4)c3)c2)c2nn[nH]c2n1 (centres unmarked) [Example 218, 7-{[1-({3-[3-(3-Chlorophenyl)piperazin-1-yl]phenyl}methyl)-1H-pyrazol-4-yl]methyl}-3H-[1,2,3]triazolo[4,5-b]pyridin-5-amine]	1 to 100	101 to 999
Nc1cc(Cc2cnn(Cc3cccc(N4CCNC(c5ccccc5)C4)c3)c2)c2nn[nH]c2n1 (centres unmarked) [Example 219, 7-[(1-{[3-(3-Phenylpiperazin-1-yl)phenyl]methyl}-1H-pyrazol-4-yl)methyl]-3H-[1,2,3]triazolo[4,5-b]pyridin-5-amine]	1 to 100	101 to 999
Nc1cc(Cc2cnn(Cc3cccc(N4CCN[C@@H](COCc5ccccc5)C4)c3)c2)c2nn[nH]c2n1 [Example 220, 7-{[1-({3-[(3R)-3-[(Benzyloxy)methyl]piperazin-1-yl]phenyl}methyl)-1H-pyrazol-4-yl]methyl}-3H-[1,2,3]triazolo[4,5-b]pyridin-5-amine]	1 to 100	101 to 999
C[C@@H]1CN(c2cccc(Cn3cc(Cc4cc(N)nc5[nH]nnc45)cn3)c2)C[C@H](C)N1 [Example 221, 7-{[1-({3-[cis-3,5-Dimethylpiperazin-1-yl]phenyl}methyl)-1H-pyrazol-4-yl]methyl}-3H-[1,2,3]triazolo[4,5-b]pyridin-5-amine]	1 to 100	1 to 100
Nc1cc(Cc2cnn(Cc3cccc(N4CCNC(C(F)(F)F)C4)c3)c2)c2nn[nH]c2n1 (centres unmarked) [Example 222, 7-{[1-({3-[3-(Trifluoromethyl)piperazin-1-yl]phenyl}methyl)-1H-pyrazol-4-yl]methyl}-3H-[1,2,3]triazolo[4,5-b]pyridin-5-amine]	101 to 999	101 to 999
